Measurements reported in PMC7415810, “A novel nucleolin-binding peptide for Cancer Theranostics” (Theranostics, 2020).

B1: AGM-330 (tetrameric multiple-antigen-peptide form) (peptide)
peptide: RHGAMVYLK
modifications: PEG12 after the C-terminal Lys of each RHGAMVYLK arm (RHGAMVYLK-PEG12-OH), joined to a trilysine core
notes: arm of the dendrimer; picked from a one-bead-one-compound library on MDA-MB-231 cells; The core is not written as a chain; also called tetrameric AGM-330; source: synthetic peptide (AnyGen, solid-phase peptide synthesis)

Legend:
[1] = In vitro stability test in human serum; conditions: 100 μM stock diluted 10-fold in 100% human serum, 37 °C, 0-24 h; analytical HPLC; triplicate
Description: Stock solutions of peptides (100 μM) were diluted by a factor of 10 with pre-warmed 100% human serum (Sigma-Aldrich, St. Louis, MO, USA) and incubated at 37 °C for 0, 3, 6, 9, and 24 h. Controls with peptides in PBS were included. The action was stopped by denaturing the serum proteins with urea at a final concentration of 3 M at 4 °C for 10 min, followed by precipitation of serum proteins with trichloroacetic acid at a final concentration of 7% (v/v) (4 °C, 10 min) and centrifugation (17,000 × g, 10 min). The supernatant of each sample was recovered and run on an analytical column using a linear gradient of 5-65% solvent B for 30 min at a flow rate of 1 ml/min, where solvent A was water containing 0.1% TFA and solvent B was acetonitrile containing 0.1% TFA. The percentage of peptide remaining in serum-treated samples was determined by comparing the height of the peptide peak obtained at each time point with that of the peptide peak obtained at the 0 time point. […]
(§1) bated at 37 °C for 0, 3, 6, 9, and 24 h. The portion of serum-treated peptide remaining was determined by calcu-lating the height of the respective elution peak in analytical-HPLC and comparing it with control without incuba- […]
Plasma peptide concentrations were quantified by ELISA, and pharmacokinetic profiles were analyzed using Phoenix WinNonlin 8.1 (Pharsight Corporation, Mountain View, CA, USA). […]

[2] = In vivo stability test (plasma pharmacokinetics after single intravenous injection); conditions: mouse
Description: After 15 min of centrifugation at 5,000 rpm and 4 °C, the plasma was obtained and stored at -80 °C. Plasma peptide concentrations were quantified by ELISA, and pharmacokinetic profiles were analyzed using Phoenix WinNonlin 8.1 (Pharsight Corporation, Mountain View, CA, USA). The area under the plasma concentration-time curve (AUC), distribution half-time (T1/2), maximum plasma concentration (Cmax) and time required to reach maximum plasma concentration (Tmax) values were directly determined from the experimental data. […]
as §1
Plasma peptide concentrations were quantified by ELISA, and pharmacokinetic profiles were analyzed using Phoenix WinNonlin 8.1 (Pharsight Corporation, Mountain View, CA, USA). The data are presented as the means ± standard deviation.

[3] = tested on: MDA-MB-231 cells; test: cells; conditions: Homo sapiens, MDA-MB-231, 48 h, read-out: IC50, MDA-MB-231 cells
Description: (§2) Cancer and normal cells (1 × 10^4 cells/well) were seeded in 96-well plates, incubated for 24 h, and then treated with increasing concentrations of AGM-330, PTX, and AGM-330-PTX for 48 h. Cell viability was assessed by the CellVia WST-1 assay (Young In Frontier) according to the manufacturer's instructions. The numbers of viable cells were measured at a wavelength of 450 nm using a VersaMax ELISA plate reader (Molecular Devices, San Jose, CA, USA).
(§3) Figure S3. A-C, Cancer and normal cells (1 × 10^4 cells/well) were seeded in 96-well plates. After 24 h of incuba-tion, the cells were treated with an increasing concentration of dimeric or tetrameric AGM-330 for 48 h. The viability of cells grown in 0 % FBS (A), 5 % FBS (B) or 10 % FBS (C) was assessed by a CellVia WST-1 assay (Young In Frontier, Seoul, Korea) according to the manufacturer’s instruction. The numbers of viable cells were measured at a wavelength of 450 nm using an VersaMax ELISA plate reader (Molecular Devices). D, E, Binding specificity of AGM-330. A whole-cell binding assay was performed to determine the cell binding of AGM-330 in 1 % FBS (D) or 5 % FBS (E). Scale bar, 200 μm.

[4] = tested on: MCF-10A cells; test: cells; conditions: Homo sapiens, MCF-10A, 48 h, read-out: IC50, MCF-10A cells
Description: as §2, §3

[5] = tested on: MDA-MB-231-luc xenograft; test: Tumorigenesis experiment, MDA-MB-231-luc breast cancer xenograft; conditions: tail vein twice a week; for average tumor volume: day 21, n = 5; for final average tumor weight: n = 5
Description: All animal experiments were performed in accordance with IACUC guidelines (GIST-2019-040). For tumorigenesis experiments, anesthetized 6-week-old female NOD-scid Il2rg^-^/^- mice (NPG^TM, VITALSTAR) were inoculated in the mammary fat pad with 1 × 10^6 MDA-MB-231-luc cells in a 100 μl volume (n = 5 for each group). After tumor cell inoculation, when the tumor volume reached approximately 100 mm^3, the mice were randomly divided into the following five groups: (i) control, (ii) low-dose paclitaxel (2 mg/kg), (iii) high-dose paclitaxel (10 mg/kg), (iv) AGM-330 (16.68 mg/kg, molar equivalent to 2 mg/kg of PTX), and (v) AGM-330-PTX (19.05 mg/kg, molar equivalent to 2 mg/kg of PTX). The tumor size was measured twice a week, and the tumor volume was calculated with the following formula: volume (mm^3) = [length (mm)] × [width (mm)]^2 × 0.5. For the bioluminescent imaging experiment, D-luciferin (150 mg/kg; PerkinElmer) was intraperitoneally injected into each mouse, and an IVIS 100 imaging system (Xenogen, Corporation, Alameda, CA) was used for bioluminescent monitoring. Mice were anesthetized with vaporized isofurane (BK Pharm, Ilsan, Korea) and placed in an imaging chamber. After 10 min, each animal was imaged with an exposure time of 1 min. All bioluminescent image data were obtained using Living Image software (version 4.5.2, PerkinElmer). Photons detected from tumors were converted to average radiance values (photon/sec/cm^2/sr), which are quantitative data obtained from a region of […] (ROI) and include the photons emitted by bioluminescent cells from an assigned rectangular area over the whole body of each mouse.
A, Cell proliferation inhibition by AGM-330-PTX treatment was determined for 48 h by the WST assay in multiple breast and colorectal cancer cells and in normal cells. B, Schematic representation of the experimental protocol as described in the materials and methods section. Anesthetized 6‑week-old […] NPG mice were inoculated with a 1:1 mix of Matrigel and 1 × 10^6 MDA-MB-231-luc cells into the mammary fat pad. When the volume of primary tumors reached approximately 100 mm^3, tumor-bearing mice were treated with vehicle (PBS), PTX (2 or 10 mg/kg), AGM-330 (16.68 mg/kg, molar equivalent to 2 mg/kg of PTX), or AGM-330-PTX (19.05 mg/kg, molar equivalent to 2 mg/kg of PTX; n = 5/group). C-E, The therapeutic effect of AGM-330-PTX was evaluated in breast cancer xenograft models. C, Primary tumor volume was measured twice a week until the day of sacrifice. The primary tumor volume was calculated by the formula volume (mm^3) = (length (mm)) × (width (mm))^2 × 0.5. D, On the day of sacrifice, all primary tumors were isolated, and (E) the primary tumor weights were evaluated. F-I, Immunohistochemistry (IHC) sections of representative tumors with Ki-67 (F,H) and TUNEL (G,I) staining. Nuclei were stained with DAPI (blue). Scale bar, 50 µm. Bar graphs represent the mean ± SD, and statistical analyses were performed by one-way ANOVA with Dunnett's multiple comparison. *, **, and *** indicate P < 0.05, P < 0.01, and P < 0.001, respectively.
Following in vitro proliferation analysis on cancer lines, we investigated whether AGM-330-PTX could be a potential therapeutic agent in vivo. We inoculated MDA-MB-231-luc cells into the mammary fat pad of NPG mice. After the […] tumors grew to 100 mm^3, comparative efficacy studies were performed by dividing the animals into five groups (n = 5/group) treated with vehicle (PBS), PTX (2 or 10 mg/kg, respectively), AGM-330 (16.68 mg/kg, molar equivalent to 2 mg/kg of PTX), or AGM-330-PTX (19.05 mg/kg, molar equivalent to 2 mg/kg of PTX) twice a week by tail vein injection (Figure 5B). Tumor growth was monitored by measuring volumes twice a week with a caliber rule over the course of 3 weeks.
Figure S11. A-E, NPG TM mice bearing MDA-MB-231-luc tumors were treated twice a week for 21 days with […]

[6] = tested on: MCF-10A; test: Whole-cell binding assay on OBOC peptide beads; format: cell-based, human; conditions: peptide on TentaGel beads incubated with cells at 10^6 cells/ml; repeated 3 times
Description: (§4) The beads were washed extensively with double-distilled water and phosphate-buffered saline (PBS; Welgene Inc., Korea) before screening. Cancer and normal cells were detached from culture dishes with trypsin/EDTA (Gibco), washed with their corresponding culture medium, resuspended at 10^6 cells/ml, and incubated with OBOC beads in Petri dishes in a humidified CO2 incubator at 37 °C with shaking (60 rpm). Beads bound by cells appeared under a microscope as rosettes in which a central bead was covered by one or more layers of cells. The positive beads were picked with a pipette under an inverted microscope, treated with guanidine-HCL (8 M, 20 min) to remove cells and proteins on the bead surface, and subjected to a second round of screening with normal breast epithelial cells to eliminate false positive binding.
(§5) Note : Semiquantitative relative binding activity: “++++” very strong binding (>40 cells per bead), “+++” strong binding (30
(§6) -20 cells per bead), “+ +” moderate binding (20 - 10 cells per bead), “+” weak binding (5-10 cells per bead), “-” no binding. […]
(§7) Figure S1. A, Steps performed in peptide library synthesis and screening. 1, The split-mix synthesis method was performed to construct the combinatorial OBOC libraries. […]
(§8) sized. 3, OBOC libraries were incubated with cancer cells in a CO2 incubator. 4, Beads carrying ligands with an affinity for cell surface molecules became covered with cells. 5, The positive beads were picked with a pipette under an inverted microscope. 6, The peptide sequences for positive beads were determined by Edman microse - […]
(§9) peptide libraries. B, The binding specificities of the peptides against cancer cell and normal cells were deter- […]
(§10) breast and colorectal cancer cells and normal breast and colorectal cells were re-suspended at 10^6 cells/ml and incubated with beads. All experiments were repeated 3 times. Scale bar, 200 μm.

[7] = tested on: MDA-MB-231; test: Whole-cell binding assay on OBOC peptide beads; format: cell-based, human; conditions: peptide on TentaGel beads incubated with cells at 10^6 cells/ml; repeated 3 times
Description: as §4, §5, §6, §7, §8, §9, §10

[8] = target: T1, full length recombinant NCL (OriGene) (UniProt P19338 1-710); test: SPR; Biacore T-200, 25 °C; full length recombinant NCL amine-coupled on CM5 (about 1000 RU); AGM-330 20 nM - 2.5 μM injected at 30 μl/min; HBS-EP (10 mM HEPES pH 7.4, 0.15 M NaCl, 3.4 mM EDTA, 0.05% Triton-X 100); KD = kd/ka; conditions: both partners purified
T1 construct: nucleolin, full length recombinant protein from OriGene; no catalogue number, species or tags are printed; source: bought: OriGene
T1 sequence (P19338 whole entry): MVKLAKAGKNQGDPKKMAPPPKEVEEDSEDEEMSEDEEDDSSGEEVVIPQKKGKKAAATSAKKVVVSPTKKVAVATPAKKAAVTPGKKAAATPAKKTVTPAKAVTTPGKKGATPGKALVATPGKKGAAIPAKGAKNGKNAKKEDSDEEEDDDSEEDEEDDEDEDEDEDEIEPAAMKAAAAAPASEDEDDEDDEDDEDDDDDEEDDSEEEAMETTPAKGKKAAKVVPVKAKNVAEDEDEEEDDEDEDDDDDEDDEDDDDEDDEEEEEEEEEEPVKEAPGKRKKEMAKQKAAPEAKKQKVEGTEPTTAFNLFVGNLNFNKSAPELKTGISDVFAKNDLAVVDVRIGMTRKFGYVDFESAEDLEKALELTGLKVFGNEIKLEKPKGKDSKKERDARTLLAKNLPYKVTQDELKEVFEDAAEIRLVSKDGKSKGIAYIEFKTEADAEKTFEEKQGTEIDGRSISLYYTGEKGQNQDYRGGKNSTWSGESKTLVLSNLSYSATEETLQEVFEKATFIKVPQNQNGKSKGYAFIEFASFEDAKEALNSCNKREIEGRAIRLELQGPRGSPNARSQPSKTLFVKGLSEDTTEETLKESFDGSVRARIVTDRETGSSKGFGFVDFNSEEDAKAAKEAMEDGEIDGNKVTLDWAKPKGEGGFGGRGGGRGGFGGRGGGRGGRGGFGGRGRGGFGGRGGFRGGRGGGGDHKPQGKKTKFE

Molecule | Semiquantitative relative binding activity, MCF-10A [6] | Semiquantitative relative binding activity, MDA-MB-231 [7] | other results
CSCC[C@H](NC(=O)[C@H](C)NC(=O)CNC(=O)[C@H](Cc1c[nH]cn1)NC(=O)[C@@H](N)CCCNC(=N)N)C(=O)N[C@H](C(=O)N[C@@H](Cc1ccc(O)cc1)C(=O)N[C@@H](CC(C)C)C(=O)N[C@@H](CCCCN)C(=O)O)C(C)C [AGM-330m] | – | – | degradation after incubation with serum [1]: rapidly degraded; Cmax [2]: 1270 ± 120 ng/mL; Tmax [2]: 10 min
CC(=O)O[C@H]1C(=O)[C@@]2(C)[C@H]([C@H](OC(=O)c3ccccc3)[C@]3(O)C[C@H](OC(=O)[C@H](O)[C@@H](NC(=O)c4ccccc4)c4ccccc4)C(C)=C1C3(C)C)[C@]1(OC(C)=O)CO[C@@H]1C[C@@H]2O [PTX, paclitaxel, reference compound] | – | – | IC50 [3]: 370 nM; IC50 [4]: 450 nM; average tumor volume ([5]; 2 mg/kg): 1671 ± 199 mm^3; final average tumor weight ([5]; 2 mg/kg): 2.1 ± 0.4 g; average tumor volume ([5]; 10 mg/kg): 988 ± 78 mm^3; final average tumor weight ([5]; 10 mg/kg): 1.5 ± 0.1 g
ADHRHRRSG [AGM-331] | ++ (moderate binding (20 - 10 cells per bead)) | ++++ (very strong binding (>40 cells per bead)) | –
AVARARRRR [AGM-332] | ++ (moderate binding (20 - 10 cells per bead)) | +++ (strong binding (30 -20 cells per bead)) | –
FGRLKKPLK [AGM-335, 9mer peptide hit from OBOC screening] | + (weak binding (5-10 cells per bead)) | + (weak binding (5-10 cells per bead)) | –
KRRRKAPTD [AGM-337, 9mer peptide hit from OBOC screening] | + (weak binding (5-10 cells per bead)) | + (weak binding (5-10 cells per bead)) | –
KRRRRERAG [AGM-336, 9mer peptide hit from OBOC screening] | +++ (strong binding (30 -20 cells per bead)) | +++ (strong binding (30 -20 cells per bead)) | –
RFLKNKKAR [AGM-333, 9mer peptide hit from OBOC screening] | +++ (strong binding (30 -20 cells per bead)) | ++ (moderate binding (20 - 10 cells per bead)) | –
RWLKNKKAR [AGM-334, 9mer peptide hit from OBOC screening] | +++ (strong binding (30 -20 cells per bead)) | ++ (moderate binding (20 - 10 cells per bead)) | –
B1 | – | – | Kd [8]: 57.7 ± 12 nM
